Like-named read-outs stand apart in the source and are kept apart here.
What was measured:
USP1/UAF1 enzyme = USP1/UAF1 enzyme (Homo sapiens, UniProt O94782); assay: USP1/UAF1 deubiquitination assay (ubiquitin-rhodamine 110 substrate); format: biochemical; settings: read-out: USP1 IC50 (Ub-Rho)
Summary of the method: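 0.05 nM USP1/UAF1 was preincubated 10 min with compounds (dose response from 10 μM) in 50 mM Tris-HCl pH 7.8, 0.5 mM EDTA, 0.01% BSA, 1 mM DTT, 0.01% Tween-20. 150 nM ubiquitin-rhodamine 110 started the reaction, read kinetically 30 min at Ex480/Em540; IC50 by four-parameter fit versus no-enzyme and DMSO controls.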

[1] = system: Ub-PCNA levels in the nucleus of ES2 cells (USP1 activity); assay: ES2 Ub-PCNA immunofluorescence (IF) assay; format: cell-based; settings: ES2 cells, 3 hours, Ub-PCNA immunofluorescence, read-out: USP1 IC50 (Ub-PCNA)
Summary of the method: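 Cells plated overnight, then compound-treated for 3 h at 37° C (0.3% DMSO final), methanol-fixed and stained with anti-Ub-PCNA plus DAPI. Per-nucleus Ub-PCNA intensity imaged; cells above the 95% cutoff of untreated wells counted as positive, and percent positive cells used to derive AC50.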

[2] = ADME solubility determination in PBS at pH 2.0 and pH 7.4; format: physicochemical; settings: for solubility at 24 h: phosphate buffered saline, 25 °C, thermodynamic from solid
Summary of the method: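 Dried 10 mM DMSO stock residues taken up in PBS pH 7.4 or pH 2.0, shaken 24 h at 25° C. After centrifugation, supernatant quantified by LC-MS/MS against a standard of known concentration, with a dilution factor applied.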

[3] = Liver microsomal metabolic stability, rat liver microsomes (RLM); settings: 1 μM compound, 1 mg/mL microsomes, NADPH; for half-life at 1 μM: rat, liver microsomes, t1/2 (min) in RLM
[4] = Liver microsomal metabolic stability, human liver microsomes (HLM); settings: for half-life at 1 μM: human, liver microsomes
[5] = pH 2, aqueous buffer, PBS pH 2.0, 25° C., read-out: Solubility at pH 2.0
[6] = pH 7.4, aqueous buffer, PBS pH 7.4, 25° C., read-out: Solubility at pH 7.4

Sequence of USP1/UAF1 enzyme (O94782 whole entry): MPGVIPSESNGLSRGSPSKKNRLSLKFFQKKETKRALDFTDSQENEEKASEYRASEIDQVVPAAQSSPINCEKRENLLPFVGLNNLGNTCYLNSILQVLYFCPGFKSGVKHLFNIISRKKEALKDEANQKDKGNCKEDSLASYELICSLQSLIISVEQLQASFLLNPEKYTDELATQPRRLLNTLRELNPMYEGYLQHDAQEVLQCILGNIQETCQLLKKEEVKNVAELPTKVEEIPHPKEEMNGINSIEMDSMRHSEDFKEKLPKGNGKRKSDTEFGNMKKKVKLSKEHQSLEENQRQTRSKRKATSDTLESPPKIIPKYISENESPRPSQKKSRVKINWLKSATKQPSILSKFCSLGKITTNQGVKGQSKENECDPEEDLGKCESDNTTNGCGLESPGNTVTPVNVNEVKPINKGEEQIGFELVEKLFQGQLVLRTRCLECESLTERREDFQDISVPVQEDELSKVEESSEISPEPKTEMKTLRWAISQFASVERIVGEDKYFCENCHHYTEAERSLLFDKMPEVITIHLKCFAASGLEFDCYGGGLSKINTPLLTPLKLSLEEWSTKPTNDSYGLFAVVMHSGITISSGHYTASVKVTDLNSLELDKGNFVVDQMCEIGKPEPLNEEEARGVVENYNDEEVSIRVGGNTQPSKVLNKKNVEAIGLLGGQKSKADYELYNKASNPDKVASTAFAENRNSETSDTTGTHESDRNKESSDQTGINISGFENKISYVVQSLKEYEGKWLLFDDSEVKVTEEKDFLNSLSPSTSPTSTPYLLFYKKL
Sequence of USP1/UAF1 enzyme (Q8TAF3 whole entry partner): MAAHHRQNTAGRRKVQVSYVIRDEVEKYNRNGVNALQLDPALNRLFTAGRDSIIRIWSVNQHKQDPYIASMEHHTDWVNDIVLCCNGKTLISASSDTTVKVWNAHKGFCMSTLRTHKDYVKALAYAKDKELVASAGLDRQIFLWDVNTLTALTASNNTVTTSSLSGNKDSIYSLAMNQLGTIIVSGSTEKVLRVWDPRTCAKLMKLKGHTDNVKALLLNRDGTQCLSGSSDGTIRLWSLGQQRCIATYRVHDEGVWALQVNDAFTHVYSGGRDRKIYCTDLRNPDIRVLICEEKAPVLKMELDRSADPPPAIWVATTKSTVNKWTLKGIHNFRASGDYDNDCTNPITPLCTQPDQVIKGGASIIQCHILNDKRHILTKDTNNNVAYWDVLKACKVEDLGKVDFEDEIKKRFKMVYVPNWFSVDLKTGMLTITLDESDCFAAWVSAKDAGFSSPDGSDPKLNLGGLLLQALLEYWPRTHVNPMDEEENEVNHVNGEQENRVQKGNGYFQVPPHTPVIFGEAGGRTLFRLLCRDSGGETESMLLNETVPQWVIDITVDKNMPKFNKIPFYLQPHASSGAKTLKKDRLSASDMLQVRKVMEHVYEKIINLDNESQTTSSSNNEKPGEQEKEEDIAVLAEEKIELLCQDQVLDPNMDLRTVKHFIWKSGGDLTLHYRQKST

| SMILES | IC50 (USP1/UAF1 enzyme) | IC50 ([1]; Homo sapiens, ES-2) | solubility at 24 h [2, 5] | solubility at 24 h [2, 6] | half-life at 1 μM [3] | half-life at 1 μM [4] | IC50 [1] | Solubility at pH 2.0 (μM) ([2]; PBS pH 2.0, 25° C., 24 hours) | Solubility at pH 7.4 (μM) ([2]; PBS pH 7.4, 25° C., 24 hours) | t1/2 (min) in RLM [3] | t1/2 (min) in HLM ([4]; human liver microsomes, 1 μM compound, 1 mg/mL microsomes, NADPH) |
| --- | --- | --- | --- | --- | --- | --- | --- | --- | --- | --- | --- |
| CCn1cc(C(F)(F)F)nc1-c1ccc(NC2CCCn3nc(-c4c(Cl)cnn4C(C)C)cc32)cn1 (stereo not drawn) [Example 245, 2-(4-chloro-1-isopropyl-1H-pyrazol-5-yl)-N-(6-(1-ethyl-4-(trifluoromethyl)-1H-imidazol-2-yl)pyridin-3-yl)-4,5,6,7-tetrahydropyrazolo[1,5-a]pyridin-4-amine] | < 100 nM | 100 to 500 nM | < 10 µM | < 10 µM | > 25 min | > 25 min |  |  |  |  |  |
| CCn1cc(C(F)(F)F)nc1-c1ccc(NC2CCCn3nc(-c4c(Cl)cnn4C(C)C)cc32)cc1OC (stereo not drawn) [Example 246, 2-(4-chloro-1-isopropyl-1H-pyrazol-5-yl)-N-(4-(1-ethyl-4-(trifluoromethyl)-1H-imidazol-2-yl)-3-methoxyphenyl)-4,5,6,7-tetrahydropyrazolo[1,5-a]pyridin-4-amine] | < 100 nM | 100 to 500 nM | ≥ 10 µM | < 10 µM | > 25 min | > 25 min |  |  |  |  |  |
| CCn1cc(C#N)nc1-c1ccc(NC2CCCn3nc(-c4c(Cl)cnn4C(C)C)cc32)cc1 (stereo not drawn) [Example 247, 2-(4-((2-(4-chloro-1-isopropyl-1H-pyrazol-5-yl)-4,5,6,7-tetrahydropyrazolo[1,5-a]pyridin-4-yl)amino)phenyl)-1-ethyl-1H-imidazole-4-carbonitrile] | < 100 nM | 100 to 500 nM | < 10 µM | < 10 µM | < 25 min | < 25 min |  |  |  |  |  |
| COc1ncnc(C2CC2)c1-c1cc2n(n1)CCCC2Nc1ccc(-c2nc(C(F)(F)F)cn2C(C)CF)cc1 (stereo not drawn) [Example 248, 2-(4-cyclopropyl-6-methoxypyrimidin-5-yl)-N-(4-(1-(1-fluoropropan-2-yl)-4-(trifluoromethyl)-1H-imidazol-2-yl)phenyl)-4,5,6,7-tetrahydropyrazolo[1,5-a]pyridin-4-amine] | < 100 nM | < 100 nM | ≥ 10 µM | ≥ 10 µM | > 25 min | > 25 min |  |  |  |  |  |
| CC(CF)n1cc(C(F)(F)F)nc1-c1ccc(NC2CCCn3nc(-c4c(OC(F)F)ncnc4C4CC4)cc32)cc1 (stereo not drawn) [Example 249, 2-(4-cyclopropyl-6-(difluoromethoxy)pyrimidin-5-yl)-N-(4-(1-(1-fluoropropan-2-yl)-4-(trifluoromethyl)-1H-imidazol-2-yl)phenyl)-4,5,6,7-tetrahydropyrazolo[1,5-a]pyridin-4-amine] | < 100 nM | < 100 nM | < 10 µM | < 10 µM | > 25 min | > 25 min |  |  |  |  |  |
| CCn1cc(C(F)(F)F)nc1-c1ccc(NC2CCCn3nc(-c4c(OC(F)F)ncnc4C4CC4)cc32)cc1 (stereo not drawn) [Example 250, 2-(4-cyclopropyl-6-(difluoromethoxy)pyrimidin-5-yl)-N-(4-(1-ethyl-4-(trifluoromethyl)-1H-imidazol-2-yl)phenyl)-4,5,6,7-tetrahydropyrazolo[1,5-a]pyridin-4-amine] | < 100 nM | < 100 nM | < 10 µM | < 10 µM | > 25 min | > 25 min |  |  |  |  |  |
| CCn1cc(C(F)(F)F)nc1-c1ccc(NC2CCCn3nc(-c4c(Cl)cnn4C(C)C)cc32)cc1C#N (stereo not drawn) [Example 255, 5-((2-(4-chloro-1-isopropyl-1H-pyrazol-5-yl)-4,5,6,7-tetrahydropyrazolo[1,5-a]pyridin-4-yl)amino)-2-(1-ethyl-4-(trifluoromethyl)-1H-imidazol-2-yl)benzonitrile] | < 100 nM | 100 to 500 nM | < 10 µM | < 10 µM | < 25 min | > 25 min |  |  |  |  |  |
| CCn1cc(C(F)(F)F)nc1-c1ccc(N(C)C2CCCn3nc(-c4c(Cl)cnn4C(C)C)cc32)cc1 (stereo not drawn) [Example 258, 2-(4-chloro-1-isopropyl-1H-pyrazol-5-yl)-N-(4-(1-ethyl-4-(trifluoromethyl)-1H-imidazol-2-yl)phenyl)-N-methyl-4,5,6,7-tetrahydropyrazolo[1,5-α]pyridin-4-amine] | < 100 nM | 100 to 500 nM | < 10 µM | < 10 µM | < 25 min | < 25 min |  |  |  |  |  |
| CCn1cc(C(F)(F)F)nc1-c1ccc(OC2CCCn3nc(-c4c(Cl)cnn4C(C)C)cc32)cc1 (stereo not drawn) [Example 261, 2-(4-chloro-1-isopropyl-1H-pyrazol-5-yl)-4-(4-(1-ethyl-4-(trifluoromethyl)-1H-imidazol-2-yl)phenoxy)-4,5,6,7-tetrahydropyrazolo[1,5-α]pyridine] | < 100 nM | < 100 nM | < 10 µM | < 10 µM | > 25 min | > 25 min |  |  |  |  |  |
| CCn1cc(C(F)(F)F)nc1-c1ccc(OC2CCCn3nc(-c4c(Cl)cnn4C(C)C)cc32)cc1F (stereo not drawn) [Example 262] | < 100 nM | 100 to 500 nM | < 10 µM | < 10 µM | > 25 min | > 25 min |  |  |  |  |  |

Continued, values first:

| IC50 (USP1/UAF1 enzyme) | IC50 ([1]; Homo sapiens, ES-2) | solubility at 24 h [2, 5] | solubility at 24 h [2, 6] | half-life at 1 μM [3] | half-life at 1 μM [4] | IC50 [1] | Solubility at pH 2.0 (μM) ([2]; PBS pH 2.0, 25° C., 24 hours) | Solubility at pH 7.4 (μM) ([2]; PBS pH 7.4, 25° C., 24 hours) | t1/2 (min) in RLM [3] | t1/2 (min) in HLM ([4]; human liver microsomes, 1 μM compound, 1 mg/mL microsomes, NADPH) | SMILES |
| --- | --- | --- | --- | --- | --- | --- | --- | --- | --- | --- | --- |
| < 100 nM | 100 to 500 nM | < 10 µM | < 10 µM | < 25 min | < 25 min |  |  |  |  |  | CCn1cc(C(F)(F)F)nc1-c1ccc(CC2OCCn3nc(-c4c(Cl)cnn4C(C)C)cc32)cc1 (stereo not drawn) [Example 265, 2-(4-chloro-1-isopropyl-1H-pyrazol-5-yl)-4-(4-(1-ethyl-4-(trifluoromethyl)-1H-imidazol-2-yl)benzyl)-6,7-dihydro-4H-pyrazolo[5,1-c][1,4]oxazine] |
| < 100 nM | 100 to 500 nM | < 10 µM | < 10 µM | > 25 min | > 25 min |  |  |  |  |  | CCn1cc(C(F)(F)F)nc1-c1ccc(NC2CCCn3nc(-c4c(C#N)cnn4C(C)C)cc32)cc1F (stereo not drawn) [Example 266, 5-(4-((4-(1-ethyl-4-(trifluoromethyl)-1H-imidazol-2-yl)-3-fluorophenyl)amino)-4,5,6,7-tetrahydropyrazolo[1,5-α]pyridin-2-yl)-1-isopropyl-1H-pyrazole-4-carbonitrile] |
| < 100 nM |  |  |  |  |  | < 100 nM | + (“+” indicates less than 10 μM) | + (“+” indicates less than 10 μM) | + (“+” indicates less than 25 minutes) | + (“+” indicates less than 25 minutes) | CCn1cc(C(F)(F)F)nc1-c1ccc(CN2CC(O)Cn3nc(-c4c(Cl)cnn4C(C)C)cc32)cc1F (stereo not drawn) [Example 267, 2-(4-chloro-1-isopropyl-1H-pyrazol-5-yl)-4-(4-(1-ethyl-4-(trifluoromethyl)-1H-imidazol-2-yl)-3-fluorobenzyl)-4,5,6,7-tetrahydropyrazolo[1,5-α]pyrimidin-6-ol] |
| < 100 nM | < 100 nM | < 10 µM | < 10 µM | < 25 min | < 25 min |  |  |  |  |  | CCn1cc(C(F)(F)F)nc1-c1ccc(COC2CCCn3nc(-c4c(Cl)cnn4C(C)C)cc32)cc1 (stereo not drawn) [Example 270, 2-(4-chloro-1-isopropyl-1H-pyrazol-5-yl)-4-((4-(1-ethyl-4-(trifluoromethyl)-1H-imidazol-2-yl)benzyl)oxy)-4,5,6,7-tetrahydropyrazolo[1,5-α]pyridine] |
| < 100 nM | 100 to 500 nM | ≥ 10 µM | < 10 µM | < 25 min | < 25 min |  |  |  |  |  | CC(C)n1ncc(Cl)c1-c1cc2n(n1)CCC(=O)N2Cc1ccc(-c2ncccc2OC2CC2)c(Cl)c1 [Example 290] |
| < 100 nM | 100 to 500 nM | < 10 µM | < 10 µM | < 25 min | < 25 min |  |  |  |  |  | CC(C)Oc1cccnc1-c1ccc(CN2C(=O)CCn3nc(-c4c(Cl)cnn4C(C)C)cc32)cc1 [Example 291] |
| < 100 nM | < 100 nM | < 10 µM | < 10 µM | < 25 min | > 25 min |  |  |  |  |  | COc1ccc(C(F)(F)F)nc1-c1ccc(CN2C(=O)CCn3nc(-c4c(Cl)cnn4C(C)C)cc32)cc1Cl [Example 294] |
| < 100 nM | 100 to 500 nM | ≥ 10 µM | < 10 µM | < 25 min | < 25 min |  |  |  |  |  | CC(C)n1ncc(Cl)c1-c1cc2n(n1)CCC(=O)N2Cc1ccc(-c2ncccc2N2CCOCC2)c(Cl)c1 [Example 296] |
